Legend:
Conditions in all cases: Aorta
[1] = target: T1, Potassium channel protein (Rattus norvegicus) (UniProt Q6I9B6); test: Activation of potassium channel in Rattus norvegicus (rat) aortic rings assessed as inhibition of phenylepinephrine-induced contractile response relative to control
T1 sequence (whole entry): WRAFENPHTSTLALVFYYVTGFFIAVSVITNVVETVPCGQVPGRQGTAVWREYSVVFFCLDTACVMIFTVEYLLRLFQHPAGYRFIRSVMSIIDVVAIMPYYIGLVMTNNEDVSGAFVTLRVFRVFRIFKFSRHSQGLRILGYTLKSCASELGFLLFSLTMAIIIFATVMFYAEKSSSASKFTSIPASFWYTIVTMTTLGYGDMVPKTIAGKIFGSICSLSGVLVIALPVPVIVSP

[2] = target: T1, Potassium channel protein (Rattus norvegicus); test: Activation of potassium channel in Rattus norvegicus (rat) aortic rings assessed as inhibition of phenylepinephrine-induced contractile response
[3] = target: T1, Potassium channel protein (Rattus norvegicus); test: Activation of potassium channel in Rattus norvegicus (rat) aortic rings assessed as inhibition of phenylepinephrine-induced contractile response in presence of calcium activated potassium channel inhibitor TEA relative to control
[4] = target: T1, Potassium channel protein (Rattus norvegicus); test: Activation of potassium channel in Rattus norvegicus (rat) aortic rings assessed as inhibition of phenylepinephrine-induced contractile response in presence of ATP-sensitive potassium channel inhibitor glibenclamide relative to control
[5] = target: T1, Potassium channel protein (Rattus norvegicus); test: Activation of potassium channel in Rattus norvegicus (rat) aortic rings assessed as inhibition of phenylepinephrine-induced contractile response in presence of ATP-sensitive potassium channel inhibitor glibenclamide
[6] = target: T1, Potassium channel protein (Rattus norvegicus); test: Activation of potassium channel in Rattus norvegicus (rat) aortic rings assessed as inhibition of phenylepinephrine-induced contractile response in presence of calcium activated potassium channel inhibitor TEA

| SMILES | Emax [1] [%] | Activity [2] | pD2 [2] | Emax [3] [%] | Emax [4] [%] | Activity [5] | Activity [6] |
| --- | --- | --- | --- | --- | --- | --- | --- |
| CC(N/C(=N\C#N)Nc1ccncc1)C(C)(C)C (stereo unspecified) | 69.5 | Dose-dependent effect | 4.71 | 18.5 | 20.8 | Dose-dependent effect | Dose-dependent effect |
| CC1CC(=O)C2=C(C1)NC1=C(C(=O)CC(C)C1)C2c1cc(F)cc(C(F)(F)F)c1 (stereo unspecified) |  | Dose-dependent effect |  |  |  | Dose-dependent effect | Dose-dependent effect |
| CC1CC(=O)C2=C(C1)NC1=C(C(=O)CC(C)C1)C2c1ccc(F)cc1C(F)(F)F (stereo unspecified) |  | Dose-dependent effect |  |  |  | Dose-dependent effect | Dose-dependent effect |
| CC1CC(=O)C2=C(C1)NC1=C(C(=O)CC(C)C1)C2c1cc(C(F)(F)F)ccc1Cl (stereo unspecified) |  | Dose-dependent effect |  |  |  | Dose-dependent effect | Dose-dependent effect |
| CC1CC(=O)C2=C(C1)NC1=C(C(=O)CC(C)C1)C2c1ccc(Cl)c(C(F)(F)F)c1 (stereo unspecified) |  | Dose-dependent effect |  |  |  | Dose-dependent effect | Dose-dependent effect |
| CC1CC(=O)C2=C(C1)NC1=C(C(=O)CC(C)C1)C2c1c(C(F)(F)F)ccc(Cl)c1F (stereo unspecified) | 52.2 | Dose-dependent effect | 4.38 |  |  | Dose-dependent effect | Dose-dependent effect |
| CC1CC(=O)C2=C(C1)NC1=C(C(=O)CC(C)C1)C2c1cc(C(F)(F)F)cc(Cl)c1F (stereo unspecified) |  | Dose-dependent effect |  |  |  | Dose-dependent effect | Dose-dependent effect |
| CC1CC(=O)C2=C(C1)NC1=C(C(=O)CC(C)C1)C2c1c(F)cccc1C(F)(F)F (stereo unspecified) | 59.5 | Dose-dependent effect | 4.6 | 21.8 | 23.8 | Dose-dependent effect | Dose-dependent effect |
| CC1CC(=O)C2=C(C1)NC1=C(C(=O)CC(C)C1)C2c1cccc(C(F)(F)F)c1Cl (stereo unspecified) | 63 | Dose-dependent effect | 4.23 | 19.8 | 29 | Dose-dependent effect | Dose-dependent effect |
| CC1CC(=O)C2=C(C1)NC1=C(C(=O)CC(C)C1)C2c1ccc(F)c(C(F)(F)F)c1 (stereo unspecified) | 55 | Dose-dependent effect | 4.13 | 15.5 | 22.4 | Dose-dependent effect | Dose-dependent effect |
| CC1CC(=O)C2=C(C1)NC1=C(C(=O)CC(C)C1)C2c1ccc(C(F)(F)F)cc1F (stereo unspecified) | 57.4 | Dose-dependent effect | 4.12 | 27.7 | 27.2 | Dose-dependent effect | Dose-dependent effect |
| CC1CC(=O)C2=C(C1)NC1=C(C(=O)CC(C)C1)C2c1cccc(C(F)(F)F)c1F (stereo unspecified) |  | Dose-dependent effect |  |  |  | Dose-dependent effect | Dose-dependent effect |
| CC1CC(=O)C2=C(C1)NC1=C(C(=O)CC(C)C1)C2c1cc(C(F)(F)F)ccc1F (stereo unspecified) |  | Dose-dependent effect |  |  |  | Dose-dependent effect | Dose-dependent effect |

Reference: ChEMBL document CHEMBL3044973, “Substituted 9-aryl-1,8-acridinedione derivatives and their effects on potassium channels” (Med Chem Res, 2009)
